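Five compound concentrations were applied to cells in 96-well plates for 48 hours; endpoints were derived by simple linear interpolation of the resulting dose-response curve. GI50: concentration for 50% inhibition of growth. TGI marks complete inhibition of growth.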
Experiments:
Experiment in all cases: DTP human tumour cell line panel, 48 h
NCI-H460 lung = tested on: NCI-H460 lung
SNB-19 CNS = tested on: SNB-19 CNS
CCRF-CEM leukemia = tested on: CCRF-CEM leukemia
SK-MEL-28 melanoma = tested on: SK-MEL-28 melanoma
SF-295 CNS = tested on: SF-295 CNS
ACHN renal = tested on: ACHN renal
HOP-92 NSCLC = tested on: HOP-92 NSCLC
HOP-62 NSCLC = tested on: HOP-62 NSCLC
RXF 393 renal = tested on: RXF 393 renal
HS 578T breast = tested on: HS 578T breast

| SMILES | GI50 (NCI-H460 lung) | TGI (NCI-H460 lung) | GI50 (SNB-19 CNS) | TGI (SNB-19 CNS) | GI50 (CCRF-CEM leukemia) | TGI (CCRF-CEM leukemia) | GI50 (SK-MEL-28 melanoma) | TGI (SK-MEL-28 melanoma) | GI50 (SF-295 CNS) | TGI (SF-295 CNS) | GI50 (ACHN renal) | TGI (ACHN renal) | GI50 (HOP-92 NSCLC) | TGI (HOP-92 NSCLC) | GI50 (HOP-62 NSCLC) | TGI (HOP-62 NSCLC) | GI50 (RXF 393 renal) | TGI (RXF 393 renal) | TGI (HS 578T breast) | GI50 (HS 578T breast) |
| --- | --- | --- | --- | --- | --- | --- | --- | --- | --- | --- | --- | --- | --- | --- | --- | --- | --- | --- | --- | --- |
| CCC(=O)c1c(C(F)(F)F)n([O-])c2ccc(C)cc2[n+]1=O | 3.95 µM | 18.3 µM | 15.2 µM | > 50 µM | 18.2 µM | > 50 µM | 28.2 µM | > 50 µM | 3.93 µM | 15.8 µM | 5.02 µM | 14.2 µM | 8.69 µM | > 50 µM | 11.3 µM | > 50 µM | 23.4 µM | > 50 µM | – | – |
| CC(C)c1ccc(C(c2ccc(OCC(=O)O)cc2)c2ccc(C(C)C)cc(=O)c2O)c(O)c(=O)c1 | – | 8.34 µM | – | 28 µM | – | 85.2 µM | – | 24.5 µM | – | 55.1 µM | – | 28 µM | – | 0.956 µM | – | 26.2 µM | – | 27.2 µM | – | – |
| C/C=C(\C)CC/C=C/CO[Si](C)(C)C(C)(C)C | – | > 100 µM | – | > 100 µM | – | 49.6 µM | – | > 100 µM | – | > 100 µM | – | > 100 µM | – | – | – | > 100 µM | – | > 100 µM | > 100 µM | – |
| C=C(C)C1CCC2(C(=O)O)CCC3(C)C(CCC4C5(C)CCC(OC(=O)NCc6ccccc6)C(C)(C)C5CCC43C)C12 (stereo not given) | 3.14 µM | 16.5 µM | 25.3 µM | > 100 µM | 2.36 µM | > 100 µM | 1.08 µM | > 100 µM | 3.15 µM | > 100 µM | 3.29 µM | > 100 µM | – | – | 3.87 µM | > 100 µM | – | – | > 100 µM | 3.62 µM |
| COc1ccc(-c2nnc(COc3ccc(NC(=O)Nc4ccc(Cl)c(C(F)(F)F)c4)cc3F)o2)cc1 | 2.26 µM | 5.56 µM | 4.02 µM | 24.2 µM | 3.06 µM | 40 µM | 5.27 µM | 54.6 µM | 2.48 µM | 9.06 µM | 2.55 µM | 10.7 µM | 1.87 µM | 5.45 µM | 5.07 µM | 21.8 µM | – | – | 18.1 µM | 3.26 µM |
| Fc1ccc(C2SCc3nc4ccccc4n32)cc1Cl (stereo not given) | – | > 100 µM | – | > 100 µM | – | 87.4 µM | – | 61.2 µM | – | 98.1 µM | – | > 100 µM | – | 30.1 µM | – | 55.9 µM | – | 50 µM | – | – |
| CC1=N/C(=C\c2cccc([N+](=O)[O-])c2)C(=O)O1 | – | > 100 µM | – | > 100 µM | – | > 100 µM | – | > 100 µM | – | > 100 µM | – | > 100 µM | – | > 100 µM | – | > 100 µM | – | > 100 µM | – | – |
| Cc1nc2ccccc2c(=O)n1-c1ccccc1F | – | > 100 µM | – | > 100 µM | – | > 100 µM | – | > 100 µM | – | > 100 µM | – | > 100 µM | – | > 100 µM | – | > 100 µM | – | > 100 µM | – | – |
| CCCS(=O)(=O)/C(=C(\c1ccc(Br)cc1)S(=O)(=O)CCC)c1ccc(Br)cc1 | – | > 10 µM | – | > 10 µM | – | > 10 µM | – | > 10 µM | – | > 10 µM | – | > 10 µM | – | > 10 µM | – | > 10 µM | – | > 10 µM | – | – |
| COC(=O)C(=Cc1cc(OC)c(OC)c(OC)c1-c1cc2c(cc1C(C)=O)OCO2)C(=O)OC | – | > 211 µM | – | 69.6 µM | – | > 211 µM | – | 78.1 µM | – | 102 µM | – | 100 µM | – | 124 µM | – | 67.1 µM | – | 63.7 µM | – | – |
